Laboratory results: patent US6004992A, “Aminocarboxylic acid fluorobutenyl esters” (Bayer Aktiengesellschaft, priority 1995, dated 1999)

What was measured:
Meloidogyne incognita = assay: Critical Concentration Test/nematodes; type: in vivo; conditions: 20 ppm (=mg/l soil), four weeks, 25° C., 100% = infestation avoided completely
Protocol: Critical Concentration Test/nematodes
Test nematode: Meloidogyne incognita
Solvent: 4 parts by weight of acetone
Emulsifier: 1 part by weight of alkylaryl polyglycol ether
To produce a suitable preparation of active compound, 1 part by weight of active compound is mixed with the stated amount of solvent, the stated amount of emulsifier is added and the concentrate is diluted with water to the desired concentration.
The active compound preparation is intimately mixed with soil which is heavily infested with the test nematodes. The active compound concentration in the preparation is immaterial, only the amount of active compound per unit volume of soil, which is given in ppm (=mg/l), matters. The treated soil is transferred into pots, lettuce is sown in, and the pots are kept at a greenhouse temperature of 25° C.
After four weeks, the lettuce roots are checked for infestation with nematodes (root galls) and the efficacy of the active compound in % is determined. The efficacy is 100% when infestation is avoided completely and 0% when the infestation level is just as high as in the control plants in untreated, but equally infested, soil.

[1] = system: Boophilus Microplus Resistent/SP-resistent Parkhurst Strain; assay: Test with Boophilus Microplus Resistent/SP-resistent Parkhurst Strain (inhibition of oviposition); type: in vivo; conditions: 20 μg/animal; 1 μl injected into the abdomen, adult females; 100% = no tick has deposited eggs
Protocol: Test with Boophilus Microplus Resistent/SP-resistent Parkhurst Strain
Test animals: Adult females which have sucked themselves full
Solvent: Dimethyl sulphoxide
20 mg of active compound are dissolved in 1 ml of dimethyl sulphoxide, and lower concentrations are prepared by diluting in the same solvent.
The test is carried out in 5 replications. 1 μl of the solutions is injected into the abdomen, and the animals are transferred into dishes and kept in an air-conditioned room. The activity is determined via the inhibition of oviposition. 100% means that no tick has deposited eggs.

log p (pH 2) = type: physicochemical

| Structure (SMILES) | logD (log p (pH 2)) | also measured |
| --- | --- | --- |
| CC(=O)NC(=Cc1ccccc1)C(=O)OCCC(F)=C(F)F [Example Ia-2] |  | efficacy of the active compound in % (nematode infestation of lettuce roots, root galls) (Meloidogyne incognita): 100% |
| CC(=O)NC(=Cc1cccs1)C(=O)OCCC(F)=C(F)F [Example Ia-4] |  | activity (inhibition of oviposition) [1]: 100% |
| C[C@H](NC(=O)c1c(F)cccc1F)C(=O)OCCC(F)=C(F)F [Example Ib-2, 3,4,4-trifluorobut-3-enyl N-(2,6-difluorobenzoyl)-alaninate] | 2.42 |  |
| O=C(CNC(=O)c1ccccc1)OCCC(F)=C(F)F [Ib-6] | 2.09 |  |
| O=CNC1(C(=O)OCCC(F)=C(F)F)CC1 [Ib-14] | 1.32 |  |
| O=C(OCCC(F)=C(F)F)C1CCCN1C(=O)OCc1ccccc1 (stereo not drawn) [Ic-1] | 3.31 |  |
